The results in this text go back to patent publication US8772500B2, “TRPV3 modulators” (AbbVie Inc., priority 2011, dated 2014).

Series [1] is described as follows: In vitro human microsomal stability assay. The format is in vitro ADME. To be noted: human, 0.5 h, 0.5 μM, pH 7.4. In short, it runs like this: (§1)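 Compounds were incubated at 37 °C with Sprague-Dawley rat liver microsomes (rat assay) or human liver microsomes (human assay) to measure metabolic stability. NADPH was added, including to the time-zero samples.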
The target in series [2] is T1, human TRPV3 (Homo sapiens, UniProt Q8NET8).
T1 construct: expressed in transfected cells
T1 sequence (Q8NET8 1-790): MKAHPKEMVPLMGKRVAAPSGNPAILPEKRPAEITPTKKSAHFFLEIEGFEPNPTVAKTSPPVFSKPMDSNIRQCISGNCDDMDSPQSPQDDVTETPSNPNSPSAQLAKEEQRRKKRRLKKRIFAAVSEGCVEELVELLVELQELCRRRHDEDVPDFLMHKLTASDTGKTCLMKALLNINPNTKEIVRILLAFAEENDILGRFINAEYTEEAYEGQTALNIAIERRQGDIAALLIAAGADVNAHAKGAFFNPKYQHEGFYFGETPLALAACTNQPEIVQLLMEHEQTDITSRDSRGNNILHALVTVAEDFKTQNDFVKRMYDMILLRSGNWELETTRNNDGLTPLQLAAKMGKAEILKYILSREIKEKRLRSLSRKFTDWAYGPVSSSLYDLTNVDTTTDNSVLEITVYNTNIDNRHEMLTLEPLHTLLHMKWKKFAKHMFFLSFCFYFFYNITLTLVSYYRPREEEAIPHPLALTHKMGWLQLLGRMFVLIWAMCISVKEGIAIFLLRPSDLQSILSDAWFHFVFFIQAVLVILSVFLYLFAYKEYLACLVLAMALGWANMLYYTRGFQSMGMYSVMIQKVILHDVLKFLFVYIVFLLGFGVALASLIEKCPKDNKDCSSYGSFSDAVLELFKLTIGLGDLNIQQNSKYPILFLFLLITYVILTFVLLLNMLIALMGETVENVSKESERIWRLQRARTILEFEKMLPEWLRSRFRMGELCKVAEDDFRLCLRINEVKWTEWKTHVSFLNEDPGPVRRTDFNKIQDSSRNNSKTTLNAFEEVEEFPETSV
As to the kind of experiment: In vitro antagonism of recombinant human TRPV3 activation (FLIPR Tetra calcium assay, 2-APB as agonist). The settings on record: HEK293 cells stably expressing human TRPV3; 2-APB 80 μM; range class; read-out: IC50 (reported range). Format: cell-based. In short, it runs like this:
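Readout is FLIPR fluorescence, max minus min as percent of uninhibited 2-APB response, giving IC50 (usually mean of ≥2 runs). Stable human TRPV3 HEK293 cells, Calcium-4 dye-loaded, got test compound then, three minutes later, 80 μM 2-APB (EC80); run length 10 min.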

Series [3] in a line: In vitro rat microsomal stability assay. The format is in vitro ADME, rat (Sprague-Dawley). The settings on record: Sprague-Dawley, rat, 0.5 h, 0.5 μM, pH 7.4. The method in brief:
as §1

As for `OC(c1ccccn1)C1(c2cccc(OC(F)(F)F)c2)CCCO1` (stereo not drawn) [Example 92, (anti)-pyridin-2-yl{2-[3-(trifluoromethoxy)phenyl]tetrahydrofuran-2-yl}-methanol], the “HUMAN MICROSOMAL STABILITY (% REMAINING AFTER 30 MINUTES)” value in series [1] is 2.7%. In addition, the IC50 in series [2] lay within 50 to 500 nM. For the same compound, the “RAT MICROSOMAL STABILITY (% REMAINING AFTER 30 MINUTES)” value in series [3] is 0.23%.

With `OC(c1ccccn1)C1(c2cccc(OC(F)(F)F)c2)CCCO1` (stereo not drawn) [Example 93, (syn)-pyridin-2-yl{2-[3-(trifluoromethoxy)phenyl]tetrahydrofuran-2-yl}-methanol], the “HUMAN MICROSOMAL STABILITY (% REMAINING AFTER 30 MINUTES)” value in series [1] is 12%. For the same compound, the IC50 in series [2] fell in the range of 501 to 1000 nM. In series [3], the “RAT MICROSOMAL STABILITY (% REMAINING AFTER 30 MINUTES)” value was determined as 0.33%.

Regarding `OC(c1ccccn1)C1(c2ccc(OC(F)(F)F)cc2)CCCO1` (stereo not drawn) [Example 94, (anti)-pyridin-2-yl{2-[4-(trifluoromethoxy)phenyl]tetrahydrofuran-2-yl}-methanol], the “HUMAN MICROSOMAL STABILITY (% REMAINING AFTER 30 MINUTES)” value in series [1] is recorded as 55%. For the same compound, the IC50 in series [2] lay in the range of 50 to 500 nM. In addition, the “RAT MICROSOMAL STABILITY (% REMAINING AFTER 30 MINUTES)” value in series [3] is reported as 3.8%.

For `OC(c1ccccn1)C1(c2ccc(OC(F)(F)F)cc2)CCCO1` (stereo not drawn) [Example 95, (syn)-pyridin-2-yl{2-[4-(trifluoromethoxy)phenyl]tetrahydrofuran-2-yl}-methanol], the “HUMAN MICROSOMAL STABILITY (% REMAINING AFTER 30 MINUTES)” value in series [1] is 57%. Further, the IC50 in series [2] is 1100 to 5000 nM. Also, in series [3], the “RAT MICROSOMAL STABILITY (% REMAINING AFTER 30 MINUTES)” value is given as 0.61%.

Take `OC(c1ccccn1)C1(c2ccccc2OC(F)(F)F)CCCO1` (stereo not drawn) [Example 96, (anti)-pyridin-2-yl{2-[2-(trifluoromethoxy)phenyl]tetrahydrofuran-2-yl}-methanol]: the “HUMAN MICROSOMAL STABILITY (% REMAINING AFTER 30 MINUTES)” value in series [1] is 0.68%. In addition, the IC50 in series [2] was in the range of 1100 to 5000 nM. The “RAT MICROSOMAL STABILITY (% REMAINING AFTER 30 MINUTES)” value in series [3] was found to be 0.15%.

With `OC(c1ccccn1)C1(c2ccccc2OC(F)(F)F)CCCO1` (stereo not drawn) [Example 97, (syn)-pyridin-2-yl{2-[2-(trifluoromethoxy)phenyl]tetrahydrofuran-2-yl}-methanol], in series [1], the “HUMAN MICROSOMAL STABILITY (% REMAINING AFTER 30 MINUTES)” value worked out at 6.4%. The IC50 in series [2] is 50 to 500 nM. In addition, in series [3], the “RAT MICROSOMAL STABILITY (% REMAINING AFTER 30 MINUTES)” value was found to be 0.16%.

In the case of `OC(c1ccccn1)C1(c2ccc(Cl)c(Cl)c2)CCCO1` (stereo not drawn) [Example 98], the “HUMAN MICROSOMAL STABILITY (% REMAINING AFTER 30 MINUTES)” value in series [1] amounted to 7.6%. Further, the IC50 in series [2] was in the range of 50 to 500 nM. Also, the “RAT MICROSOMAL STABILITY (% REMAINING AFTER 30 MINUTES)” value in series [3] was 0.020%.

As for `OC(c1ccccn1)C1(c2ccc(Cl)c(Cl)c2)CCCO1` (stereo not drawn) [Example 99, (syn)-[2-(3,4-dichlorophenyl)tetrahydrofuran-2-yl](pyridin-2-yl)methanol], the “HUMAN MICROSOMAL STABILITY (% REMAINING AFTER 30 MINUTES)” value in series [1] worked out at 30%. In addition, the IC50 in series [2] lay within 1100 to 5000 nM. Further, the “RAT MICROSOMAL STABILITY (% REMAINING AFTER 30 MINUTES)” value in series [3] amounted to 0.17%.

For the compound `OC(c1ccccn1)C1(c2cccc(F)c2)CCCO1` (stereo not drawn) [Example 100, (anti)-[2-(3-fluorophenyl)tetrahydrofuran-2-yl](pyridin-2-yl)methanol], in series [1], the “HUMAN MICROSOMAL STABILITY (% REMAINING AFTER 30 MINUTES)” value amounted to 26%. The IC50 in series [2] lay in the range of 501 to 1000 nM. The “RAT MICROSOMAL STABILITY (% REMAINING AFTER 30 MINUTES)” value in series [3] was determined as 2.9%.

With `OC(c1ccccn1)C1(c2ccccc2F)CCCO1` (stereo not drawn) [Example 103, (syn)-[2-(2-fluorophenyl)tetrahydrofuran-2-yl](pyridin-2-yl)methanol], the “HUMAN MICROSOMAL STABILITY (% REMAINING AFTER 30 MINUTES)” value in series [1] is on record as 73%. In series [2], the IC50 lay within 1100 to 5000 nM. For the same compound, in series [3], the “RAT MICROSOMAL STABILITY (% REMAINING AFTER 30 MINUTES)” value amounted to 0.012%.

By IC50 is commonly meant the concentration that inhibits the measured activity by half.
